{"source": "patent US20250375405A1", "about": "“N-LACTOYL-PHENYLALANINE FOR PREVENTING AND/OR TREATING ISCHEMIC HEART DISEASE AND METHOD FOR PREVENTING AND/OR TREATING ISCHEMIC HEART DISEASE” (Harbin Medical University, priority 2024, published 2025)", "key": {"[1]": {"tested_on": "human umbilical vein endothelial cells (HUVECs)", "assay": "Viability of hypoxic endothelial cells, CCK8 method", "assay_type": "cell-based", "settings": "Lac-Phe final concentrations 5, 10, 20 and 40 μM added 8 hours before hypoxia for 24 hours", "procedure": "The Lac-Phe was added to human umbilical vein endothelial cells (HUVECs), and 8 hours later, the HUVECs were placed in a hypoxia incubator and cultured under hypoxia for 24 hours (N2 95%, CO2 5%). The cell viability was evaluated by Cell Counting Kit-8 (CCK8) method for the normal control group (CTRL), hypoxia group (Hypoxia), and Lac-Phe-treated hypoxia group."}, "HUVECs [2]": {"tested_on": "HUVECs", "assay": "Endothelial cell migration, wound closure assay", "assay_type": "cell-based, human", "settings": "Lac-Phe final concentration 10 μM, 12, 24 and 36 hours, versus control with 0.1% DMSO", "procedure": "HUVECs were divided into 2 groups: a control group (CTRL, including 0.1% of dimethylsulfoxide (DMSO)), and a Lac-Phe-treated group (final concentration: 10 μM). Cell monolayers were wounded in wells of a cell culture plate along the central axis of each well by an autoclaved white pipette tip, suspended cells in each well were washed with phosphate buffered saline (PBS), and a medium without fetal bovine serum was added to each well. The wounds were photographed with an inverted microscope, that is, the wound area was recorded at 0 hour. The cells were then further incubated in a cell culture incubator at 37° C. for 12 hours, 24 hours, and 36 hours. Then, the wounds were photographed under the inverted microscope, that is, the wound area was recorded. The ImageJ software was used to quantitatively assess the wound closure (FIG. 4A-FIG. 4B)."}, "[3]": {"tested_on": "Primary mouse cardiomyocytes", "assay": "Viability of hypoxic cardiomyocytes, CCK8 method", "assay_type": "cell-based", "settings": "Lac-Phe final concentrations 10 μM and 20 μM, hypoxia treatment for 24 hours", "procedure": "Primary mouse cardiomyocytes were divided into the following 4 groups: a control group (CTRL, including 0.1% of DMSO), a hypoxia group (a hypoxia treatment was performed for 24 hours), and hypoxia+Lac-Phe groups (cardiomyocytes were treated with Lac-Phe at final concentrations of 10 μM and 20 μM, respectively, and a hypoxia treatment was performed for 24 hours). The viability of cardiomyocytes was assayed by the CCK8 method.\nIt can be seen from the experimental results that Lac-Phe has the function of protecting cardiomyocytes against hypoxic injury."}, "HUVECs [4]": {"tested_on": "HUVECs", "assay": "Endothelial cell tube formation assay", "assay_type": "cell-based, human", "settings": "Lac-Phe final concentration 20 μM, 24 hours after administration", "procedure": "HUVECs were divided into 2 groups: a control group (CTRL, including 0.1% of DMSO), and a Lac-Phe-treated group (final concentration: 20 μM). 24 hours after administration, the endothelial cell tube formation assay was performed.\nIt can be seen from the experimental results that Lac-Phe can increase the length of branches and the number of branch points formed from HUVECs (FIG. 5A-FIG. 5C). The above results also indicate that Lac-Phe has the potential to promote angiogenesis."}, "HUVECs [5]": {"tested_on": "HUVECs", "assay": "Apoptosis of hypoxic endothelial cells by flow cytometry", "assay_type": "cell-based, human", "settings": "Lac-Phe final concentration 20 μM, added 8 hours before hypoxia for 24 hours", "procedure": "The Lac-Phe was added to HUVECs, and 8 hours later, the HUVECs were placed in a hypoxia incubator and cultured under hypoxia for 24 hours (N2 95%, CO2 5%). The cell apoptosis was determined by flow cytometry for the normal control group (CTRL), hypoxia group (Hypoxia), and Lac-Phe-treated hypoxia group."}, "experimental mice": {"tested_on": "experimental mice", "settings": "supplementation of Lac-Phe, earlier studies; cited from earlier work"}, "Macrophages (RAW264.7)": {"tested_on": "Macrophages (RAW264.7)", "assay": "LPS-induced pro-inflammatory cytokine expression in macrophages, qRT-PCR", "assay_type": "cell-based", "settings": "LPS 100 ng/ml, Lac-Phe final concentration 20 μM, 24 hours", "procedure": "Macrophages (RAW264.7) were divided into the following 3 groups: a control group (CTRL, including 0.1% of DMSO), a lipopolysaccharide (LPS)-treated group (LPS-induced inflammatory responses in macrophages, a concentration: 100 ng/ml), and an LPS+Lac-Phe-treated group (Lac-Phe was added to LPS-induced macrophages at a final concentration of 20 μM). 24 hours after administration, RNA was extracted from cells in each group, and expression levels of pro-inflammatory cytokines IL-6 and TNFα in cells in each group were determined by quantitative real-time polymerase chain reaction (qRT-PCR). […] The above results also indicate that Lac-Phe has the anti-inflammatory potential."}, "[6]": {"tested_on": "mouse model of myocardial ischemia", "assay": "Mouse model of myocardial ischemia (left anterior descending coronary artery ligation), echocardiographic cardiac function", "assay_type": "in vivo, mice", "settings": "mouse MI model, Lac-Phe 20 mg/kg intraperitoneally, 1 week later, compared with the MI group", "procedure": "The surgery for left anterior descending coronary artery ligation was performed on mice to establish a mouse model of myocardial ischemia (MI group). […] Mice in the MI group were intraperitoneally injected with Lac-Phe (20 mg/kg), and then anesthetized 1 week later. An M-Mode echocardiogram was obtained under the guidance of B-Mode on a Doppler ultrasound Vevo2100 imaging system for small animals, and 10 or more cardiac cycles were recorded. Instrumental analysis software was used to measure various cardiac indicators of mice to assess the cardiac functions of the mice, including a left ventricular internal dimension systole (LVID), a left ventricular end systolic volume (LVESV), an inter-ventricular septum end-stolic thickness (IVS), an E/A ratio, an ejection fraction (EF), and a fraction shortening (FS)."}}}
{"smiles": "C[C@H](O)C(=O)N[C@@H](Cc1ccccc1)C(=O)O", "note": "[Lac-Phe, N-lactoyl-phenylalanine]", "values": [{"measurement": "cell viability of hypoxic HUVECs", "setting": "[1]", "value": "significantly improved"}, {"measurement": "migration of endothelial cells (wound closure)", "setting": "HUVECs [2]", "value": "promoting the migration of endothelial cells"}, {"measurement": "viability of hypoxic cardiomyocytes", "setting": "[3]", "value": "significantly alleviate the hypoxic injury of cardiomyocytes"}, {"measurement": "length of branches formed from HUVECs", "setting": "HUVECs [4]", "value": "increase"}, {"measurement": "number of branch points formed from HUVECs", "setting": "HUVECs [4]", "value": "increase"}, {"measurement": "number of apoptotic HUVECs", "setting": "HUVECs [5]", "value": "significantly reduced"}, {"measurement": "food intake of experimental mice", "setting": "experimental mice", "value": "effectively reduce the food intake"}, {"measurement": "expression level of pro-inflammatory cytokine IL-6", "setting": "Macrophages (RAW264.7)", "value": "significantly decreased"}, {"measurement": "expression level of pro-inflammatory cytokine TNFα", "setting": "Macrophages (RAW264.7)", "value": "significantly decreased"}, {"measurement": "cardiac function (LVID, LVESV, IVS, E/A ratio, EF, FS) by echocardiogram", "setting": "[6]", "value": "significant improvement effect on the cardiac function"}]}
